Earlier results, collected in PubChem BioAssay AID1259409 (Chemical Carcinogenesis Research Information System (CCRIS), 2018).

System: rodent chemically induced tumor inhibition, incidence and multiplicity
Experiment: CCRIS tumor inhibitor studies
Details: Carcinogen: 2,2'-DIHYDROXY-DI-N-PROPYLNITROSAMINE, 53609-64-6, 13147-25-6, Carcinogen: 2,2'-DIHYDROXY-DI-N-PROPYLNITROSAMINE, 53609-64-6, 13147-25-6, Dose [Inhibitor]: 0, Route [Inhibitor]: ORAL, Species: RAT, Strain/Sex: F344/MALE, Promoter: NONE USED

O=C(OC[C@@H]1O[C@H](OC(=O)c2cc(O)c(O)c(OC(=O)c3cc(O)c(O)c(O)c3)c2)[C@@H](OC(=O)c2cc(O)c(O)c(OC(=O)c3cc(O)c(O)c(O)c3)c2)[C@H](OC(=O)c2cc(O)c(O)c(OC(=O)c3cc(O)c(O)c(O)c3)c2)[C@H]1OC(=O)c1cc(O)c(O)c(OC(=O)c2cc(O)c(O)c(O)c2)c1)c1cc(O)c(O)c(OC(=O)c2cc(O)c(O)c(O)c2)c1
tumour outcome (control, treated, inhibition, significance) (N-ETHYL-N-HYDROXYETHYL- NITROSAMINE, 3,2'-DIMETHYL-4-, N-ETHYL-N-HYDROXYETHYL- NITROSAMINE, 3,2'-DIMETHYL-4-, 1% IN DIET BEGINNING 1 WK POST LAST CARCINOGEN DOSE AND CONTINUING FOR 32 WK (STUDY DURATION: 36 WK), Target Tissue: Type of Lesion: LARGE INTESTINE: ADENOMA, Dose [Carcinogen]: 1000 MG/KG IP DHPN 2X, 1500 MG/KG GAV EHEN 2X AND 75 MG/KG SC DMAB GIVEN OVER THE INITIAL 3 WK PERIOD AT 3-4 D INTERVALS): 7/14 (50%), 2/12 (17%), 66%, not calculated | tumour outcome (control, treated, inhibition, significance) (N-ETHYL-N-HYDROXYETHYL- NITROSAMINE, 3,2'-DIMETHYL-4-, N-ETHYL-N-HYDROXYETHYL- NITROSAMINE, 3,2'-DIMETHYL-4-, 1% IN DIET BEGINNING 1 WK POST LAST CARCINOGEN DOSE AND CONTINUING FOR 32 WK (STUDY DURATION: 36 WK), Target Tissue: Type of Lesion: LARGE INTESTINE: CARCINOMA, Dose [Carcinogen]: 1000 MG/KG IP DHPN 2X, 1500 MG/KG GAV EHEN 2X AND 75 MG/KG SC DMAB 3X GIVEN OVER THE INITIAL 3 WK AT 3-4 D INTERVALS): 3/14 (21%), 1/12 (8%), 62%, not calculated | tumour outcome (control, treated, inhibition, significance) (N-ETHYL-N-HYDROXYETHYL- NITROSAMINE, 3,2'-DIMETHYL-4-, N-ETHYL-N-HYDROXYETHYL- NITROSAMINE, 3,2'-DIMETHYL-4-, 1% IN DIET BEGINNING 1 WK POST LAST CARCINOGEN DOSE AND CONTINUING FOR 32 WK (STUDY DURATION: 36 WK), Target Tissue: Type of Lesion: LUNG: ADENOMA, Dose [Carcinogen]: 1000 MG/KG IP DHPN 2X, 1500 MG/KG GAV EHEN 2X AND 75 MG/KG SC DMAB 3X GIVEN OVER THE INITIAL 3 WK AT 3-4 D INTERVALS): 7/14 (50%), 7/12 (58%), -16%, not calculated | tumour outcome (control, treated, inhibition, significance) (N-ETHYL-N-HYDROXYETHYL- NITROSAMINE, 3,2'-DIMETHYL-4-, N-ETHYL-N-HYDROXYETHYL- NITROSAMINE, 3,2'-DIMETHYL-4-, 1% IN DIET BEGINNING 1 WK POST LAST CARCINOGEN DOSE AND CONTINUING FOR 32 WK (STUDY DURATION: 36 WK), Target Tissue: Type of Lesion: LUNG: CARCINOMA, Dose [Carcinogen]: 1000 MG/KG IP DHPN 2X, 1500 MG/KG GAV EHEN 2X AND 75 MG/KG SC DMAB 3X GIVEN OVER THE INITIAL 3 WK PERIOD AT 3-4 D INTERV): 1/14 (7%), 2/12 (17%), -143%, not calculated | tumour outcome (control, treated, inhibition, significance) (N-ETHYL-N-HYDROXYETHYL- NITROSAMINE, 3,2'-DIMETHYL-4-, N-ETHYL-N-HYDROXYETHYL- NITROSAMINE, 3,2'-DIMETHYL-4-, 1% IN DIET BEGINNING 1 WK POST LAST CARCINOGEN DOSE AND CONTINUING FOR 32 WK (STUDY DURATION: 36 WK), Target Tissue: Type of Lesion: URINARY BLADDER: CARCINOMA, Dose [Carcinogen]: 1000 MG/KG IP DHPN 2X, 1500 MG/KG GAV EHEN 2X AND 75 MG/KG SC DMAB 3X GIVEN OVER THE INITIAL 3 WK PERIOD AT 3-4 D INTERV): 1/14 (7%), 2/12 (17%), -143%, not calculated | outcome (N-ETHYL-N-HYDROXYETHYL- NITROSAMINE, 3,2'-DIMETHYL-4-, N-ETHYL-N-HYDROXYETHYL- NITROSAMINE, 3,2'-DIMETHYL-4-, 1% IN DIET BEGINNING 1 WK POST LAST CARCINOGEN DOSE AND CONTINUING FOR 32 WK (STUDY DURATION: 36 WK), Target Tissue: Type of Lesion: URINARY BLADDER: PAPILLOMA, Dose [Carcinogen]: 1000 MG/KG IP DHPN 2X, 1500 MG/KG GAV EHEN 2X AND 75 MG/KG SC DMAB 3X GIVEN OVER THE INITIAL 3 WK PERIOD AT 3-4 D INTERV): 0/14 (0%), 3/12 (25%), -100%, not calculated | tumour outcome (control, treated, inhibition, significance) (N-ETHYL-N-HYDROXYETHYL- NITROSAMINE, 3,2-DIMETHYL-4-A, N-ETHYL-N-HYDROXYETHYL- NITROSAMINE, 3,2-DIMETHYL-4-A, 1% IN DIET BEGINNING 1 WK POST LAST CARCINOGEN DOSE AND CONTINUING FOR 32 WK (STUDY DURATION: 36 WK), Target Tissue: Type of Lesion: LIVER: HEPATOCELLULAR CARCINOMA, Dose [Carcinogen]: 100 MG/KG IP DHPN 2X, 1500 MG/KG GAV EHEN 2X AND 75 MG/KG SC DMAB 3X GIVEN OVER THE INITIAL 3 WK PERIOD AT 3-4 D INTERVA): 6/14 (43%), 3/12 (25%), 42%, not calculated | tumour outcome (control, treated, inhibition, significance) (N-ETHYL-N-HYDROXYETHYLNITROSAMINE, 3,2'-DIMETHYL-1,4-, N-ETHYL-N-HYDROXYETHYLNITROSAMINE, 3,2'-DIMETHYL-1,4-, 1% IN DIET FOR 4 WK BEGINNING 1 D PRIOR TO FIRST CARCINOGEN DOSE (STUDY DURATION: 36 WK), Target Tissue: Type of Lesion: KIDNEY: ADENOMA, Dose [Carcinogen]: 1000 MG/KG BW DHPN TWICE, 1500 MG/KG THEN TWICE, 75 MG/KG BW DMAB 3 TIMES, SEQUENTIALLY OVER 3 WK): 6/10 (60%), 6/12 (50%), 17%, not significant | tumour outcome (control, treated, inhibition, significance) (N-ETHYL-N-HYDROXYETHYLNITROSAMINE, 3,2'-DIMETHYL-1,4-, N-ETHYL-N-HYDROXYETHYLNITROSAMINE, 3,2'-DIMETHYL-1,4-, 1% IN DIET FOR 4 WK BEGINNING 1 D PRIOR TO FIRST CARCINOGEN DOSE (STUDY DURATION: 36 WK), Target Tissue: Type of Lesion: LUNG: ADENOMA, Dose [Carcinogen]: 1000 MG/KG BW DHPN TWICE, 1500 MG/KG THEN TWICE, 75 MG/KG BW DMAB 3 TIMES, SEQUENTIALLY OVER 3 WK): 5/10 (50%), 7/12 (58%), -16%, not significant | tumour outcome (control, treated, inhibition, significance) (N-ETHYL-N-HYDROXYETHYLNITROSAMINE, 3,2'-DIMETHYL-4-AMINO-, N-ETHYL-N-HYDROXYETHYLNITROSAMINE, 3,2'-DIMETHYL-4-AMINO-, 1% IN DIET FOR 32 WK BEGINNING 1 WK POST CARCINOGEN TREATMENT (STUDY DURATION: 36 WK), Target Tissue: Type of Lesion: KIDNEY: NEPHROBLASTOMA, Dose [Carcinogen]: 1000 MG/KG BW DHPN TWICE, 1500 MG/KG BW THEN TWICE, 75 MG/KG BW DMAB 3 TIMES ADMINISTERED OVER FIRST 3 WK): 2/14 (14%), 0/12 (0%), 100%, not significant
